Assay results reported in patent US10695322B2 (priority 2016, dated 2020).

Tests used:
Assay in all cases: biochemical
[1] = target: LdtMab2, wild-type (MAB_1530, orthologue of LdtMt2; fragment without putative transmembrane domain) (Mycobacteroides abscessus, UniProt B1MMQ4); format: binding, Mycobacterium abscessus; settings: Figure 6; ITC, wt, protein 150 μM, ligand 2 mM, pH 8.0, 24° C.
[2] = target: LdtMab1, wild-type (MAB_3165c, orthologue of LdtMt1) (Mycobacteroides abscessus, UniProt B1MDC1); format: binding, Mycobacterium abscessus; settings: Figure 6; ITC, wt, protein 150 μM, ligand 2 mM, pH 8.0, 24° C.
LdtMt2 = LdtMt2 (Mycobacterium tuberculosis, UniProt I6Y9J2); design: species or system M. tuberculosis; settings: 10 μM LdtMt2, MES pH 6.5, 10° C.
Sequence of LdtMt2 (I6Y9J2 56-408 limits assumed): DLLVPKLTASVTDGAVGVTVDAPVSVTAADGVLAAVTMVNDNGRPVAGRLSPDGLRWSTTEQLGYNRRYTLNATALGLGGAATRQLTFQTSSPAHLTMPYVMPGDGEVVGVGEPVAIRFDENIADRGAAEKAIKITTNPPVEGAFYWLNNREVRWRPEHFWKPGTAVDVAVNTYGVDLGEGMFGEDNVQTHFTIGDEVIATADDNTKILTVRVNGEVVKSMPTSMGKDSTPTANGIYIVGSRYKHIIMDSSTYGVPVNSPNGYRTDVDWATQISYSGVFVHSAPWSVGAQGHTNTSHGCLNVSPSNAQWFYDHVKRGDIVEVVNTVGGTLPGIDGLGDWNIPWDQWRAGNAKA

Sequence of LdtMab2, wild-type (MAB_1530, orthologue of LdtMt2; fragment without putative transmembrane domain) (B1MMQ4 32-406): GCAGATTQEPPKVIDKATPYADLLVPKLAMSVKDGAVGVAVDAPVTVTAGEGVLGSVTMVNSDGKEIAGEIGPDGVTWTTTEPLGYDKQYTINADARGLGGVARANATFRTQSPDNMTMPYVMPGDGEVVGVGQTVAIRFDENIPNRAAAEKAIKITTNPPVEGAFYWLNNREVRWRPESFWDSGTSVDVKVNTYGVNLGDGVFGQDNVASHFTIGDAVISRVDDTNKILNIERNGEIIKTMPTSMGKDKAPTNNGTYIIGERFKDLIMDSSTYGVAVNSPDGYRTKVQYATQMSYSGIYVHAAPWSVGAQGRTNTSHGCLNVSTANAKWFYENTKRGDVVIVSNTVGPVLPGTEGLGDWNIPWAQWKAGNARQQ
Sequence of LdtMab1, wild-type (MAB_3165c, orthologue of LdtMt1) (B1MDC1 21-248): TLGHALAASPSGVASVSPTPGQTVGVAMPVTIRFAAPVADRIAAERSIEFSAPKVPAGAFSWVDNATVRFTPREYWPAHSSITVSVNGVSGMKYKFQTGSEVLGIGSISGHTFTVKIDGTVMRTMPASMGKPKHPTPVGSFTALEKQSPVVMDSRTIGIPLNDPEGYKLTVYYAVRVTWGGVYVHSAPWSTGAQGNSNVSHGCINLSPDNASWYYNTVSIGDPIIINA

Compound C[C@@H](O)[C@H]1C(=O)N2C(C(=O)O)=C(SC3CN(C4=NCCS4)C3)[C@H](C)[C@H]12 [tebipenem] has a Kd [1] of 6.1 µM, a Kd [2] of 820 nM and a Kapp (LdtMt2) of 38.4 ± 9.7 µM.
